# Test results taken from patent US20090005363A1, “Organic Compounds” (priority 2005, published 2009).
# Molecular target: mGluR5 (Homo sapiens, UniProt P41594)
# Test: inhibition of the glutamate induced elevation of intracellular Ca2+ concentration
# Conditions: inhibition of glutamate induced elevation of intracellular Ca2+ concentration at 10 μM
# Source text: This can be determined in vitro for example at recombinant human metabotropic glutamate receptors, especially PLC-coupled subtypes thereof such as mGluR5, using different procedures like, for example, measurement of the inhibition of the agonist induced elevation of intracellular Ca^2+ concentration in accordance with L. P. Daggett et al., Neuropharm.
# Chain of mGluR5 (P41594 21-1180 isoform P41594-2 limits assumed): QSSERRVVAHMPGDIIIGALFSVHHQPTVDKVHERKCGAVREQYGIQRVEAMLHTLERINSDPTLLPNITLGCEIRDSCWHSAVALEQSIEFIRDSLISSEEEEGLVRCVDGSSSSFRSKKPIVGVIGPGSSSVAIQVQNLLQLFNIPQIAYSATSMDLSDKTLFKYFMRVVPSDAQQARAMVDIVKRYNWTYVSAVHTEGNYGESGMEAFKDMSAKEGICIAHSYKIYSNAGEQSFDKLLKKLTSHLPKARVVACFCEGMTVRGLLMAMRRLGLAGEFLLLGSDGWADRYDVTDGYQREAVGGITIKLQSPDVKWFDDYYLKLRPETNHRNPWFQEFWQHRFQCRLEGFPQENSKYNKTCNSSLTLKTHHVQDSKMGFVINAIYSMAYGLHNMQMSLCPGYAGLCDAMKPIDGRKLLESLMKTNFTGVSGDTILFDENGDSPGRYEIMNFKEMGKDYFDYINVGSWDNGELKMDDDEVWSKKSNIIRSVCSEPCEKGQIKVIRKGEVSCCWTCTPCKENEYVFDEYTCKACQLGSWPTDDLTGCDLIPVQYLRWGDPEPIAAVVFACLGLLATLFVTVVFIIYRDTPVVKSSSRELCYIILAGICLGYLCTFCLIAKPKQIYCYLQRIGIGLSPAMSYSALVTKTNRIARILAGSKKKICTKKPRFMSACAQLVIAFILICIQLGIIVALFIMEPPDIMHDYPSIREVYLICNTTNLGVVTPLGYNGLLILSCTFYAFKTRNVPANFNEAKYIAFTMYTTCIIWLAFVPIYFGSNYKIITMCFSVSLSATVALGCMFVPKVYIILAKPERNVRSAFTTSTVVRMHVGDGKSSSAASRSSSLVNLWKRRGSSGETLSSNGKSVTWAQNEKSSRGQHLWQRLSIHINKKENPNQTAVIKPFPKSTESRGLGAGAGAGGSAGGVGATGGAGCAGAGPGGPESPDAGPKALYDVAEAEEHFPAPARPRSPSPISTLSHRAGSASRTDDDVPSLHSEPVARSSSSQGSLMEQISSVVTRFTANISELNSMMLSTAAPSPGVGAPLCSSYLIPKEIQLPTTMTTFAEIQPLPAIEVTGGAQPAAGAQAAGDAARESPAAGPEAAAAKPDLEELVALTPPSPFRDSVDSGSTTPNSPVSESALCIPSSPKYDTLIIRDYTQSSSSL
row,SMILES,mGluR5 Activity inh. at 10 μM [%]
1,"Cc1ccc(Nc2ccc(C(=O)N3CCC[C@H](C)C3)cn2)cn1 [Compound 4.13a, (S-3-Methyl-piperidin-1-yl)-[6-(6-methyl-pyridin-3-ylamino)-pyridin-3-yl]-methanone]",97%
2,"Cc1ccc(Nc2ncc(C(=O)N3CCCC4CCCC43)cc2Cl)cn1 (stereo not shown) [Compound 4.25, [5-Chloro-6-(6-methyl-pyridin-3-ylamino)-pyridin-3-yl]-(octahydro-[1]pyridin-1-yl)-methanone]",98%
3,"Cc1ccc(Nc2ncc(C(=O)N3CCC[C@@H]4CCC[C@@H]43)cc2Cl)cn1 [Compound 4.26, [5-Chloro-6-(6-methyl-pyridin-3-ylamino)-pyridin-3-yl]-(4aS,7aS)-octahydro-[1]pyridin-1-yl-methanone]",93%

# Same assay, conditions: read-out: mGluR5 Activity inh. at 10 μM [%]
row,SMILES,inhibition at 10 µM
1,"Cc1ccc(Nc2ncc(C(=O)N3CCSCC3)cc2Cl)cn1 [Compound 2.15, [5-Chloro-6-(6-methyl-pyridin-3-ylamino)-pyridin-3-yl]-thiomorpholin-4-yl-methanone]",100%
2,"Cc1ncc(Nc2ncc(C(=O)N3CCCC(C)C3)cc2Cl)cn1 (stereo not shown) [Compound 2.16, [5-Chloro-6-(2-methyl-pyrimidin-5-ylamino)-pyridin-3-yl]-(3-methyl-piperidin-1-yl)-methanone]",97%
3,"Cc1ncc(Nc2ncc(C(=O)N3CCCCC3)cc2Cl)cn1 [Compound 2.17, [5-Chloro-6-(2-methyl-pyrimidin-5-ylamino)-pyridin-3-yl]-piperidin-1-yl-methanone]",97%
4,"Cc1ncc(Nc2ncc(C(=O)N3CCCCCC3)cc2Cl)cn1 [Compound 2.18, Azepan-1-yl-[5-chloro-6-(2-methyl-pyrimidin-5-ylamino)-pyridin-3-yl]-methanone]",100%
5,"CC[C@@H]1CCCCN1C(=O)c1cnc(Nc2ccc(C(F)(F)F)nc2)c(Cl)c1 [Compound 2.23, [5-Chloro-6-(6-trifluoromethyl-pyridin-3-ylamino)-pyridin-3-yl]-((R)-2-ethyl-piperidin-1-yl)-methanone]",100%
6,"CC[C@@H]1CCCCN1C(=O)c1cnc(Nc2ccc(OC)nc2)c(Cl)c1 [Compound 2.24, [5-Chloro-6-(6-methoxy-pyridin-3-ylamino)-pyridin-3-yl]-((R)-2-ethyl-piperidin-1-yl)-methanone]",97%
7,"Cc1ccc(Oc2ncc(C(=O)N3CCCCC3)cc2Cl)cn1 [Compound 3.2, [5-Chloro-6-(6-methyl-pyridin-3-yloxy)-pyridin-3-yl]-piperidin-1-yl-methanone]",97%
8,"Cc1ccc(Oc2ncc(C(=O)N3CCCCCC3)cc2Cl)cn1 [Compound 3.3, Azepan-1-yl-[5-chloro-6-(6-methyl-pyridin-3-yloxy)-pyridin-3-yl]-methanone]",90%
9,"Cc1ccc(Nc2ccc(C(=O)N3CCCCC3)cn2)cn1 [Compound 4.1, [6-(6-Methyl-pyridin-3-ylamino)-pyridin-3-yl]-piperidin-1-yl-methanone]",99%
10,"O=C(c1ccc(Nc2ccc(Cl)cc2)nc1)N1CCCCCC1 [Compound 4.2, Azepan-1-yl-[6-(4-chloro-phenylamino)-pyridin-3-yl]-methanone]",97%
11,"O=C(c1ccc(Nc2ccc(Cl)cc2)nc1)N1CCCC(F)(F)C1 [Compound 4.3, [6-(4-Chloro-phenylamino)-pyridin-3-yl]-(3,3-difluoro-piperidin-1-yl)-methanone]",92%
12,"CC1CCN(C(=O)c2ccc(Nc3ccc(Cl)cc3)nc2)CC1 [Compound 4.4, [6-(4-Chloro-phenylamino)-pyridin-3-yl]-(4-methyl-piperidin-1-yl)-methanone]",98%
13,"CC1CC(C)CN(C(=O)c2ccc(Nc3ccc(Cl)cc3)nc2)C1 (stereo not shown) [Compound 4.5, [6-(4-Chloro-phenylamino)-pyridin-3-yl]-(3,5-dimethyl-piperidin-1-yl)-methanone]",88%
14,"O=C(c1ccc(Nc2ccc(Cl)cc2)nc1)N1CCCC2CCCCC21 (stereo not shown) [Compound 4.8, [6-(4-Chloro-phenylamino)-pyridin-3-yl]-(octahydro-quinolin-1-yl)-meth anone]",94%
15,"O=C(c1ccc(Nc2ccc(Cl)cc2)nc1)N1CC2CCC(CC2)C1 [Compound 4.9, (3-Aza-bicyclo[3.2.2]non-3-yl)-[6-(4-chloro-phenylamino)-pyridin-3-yl]-methanone]",37%
16,"O=C(c1ccc(Nc2ccc(Cl)cc2)nc1)N1C2CCC1CC(O)C2 (stereo not shown) [Compound 4.11, [6-(4-Chloro-phenylamino)-pyridin-3-yl]-(3-hydroxy-8-aza-bicyclo[3.2.1]oct-8-yl)-methanone]",51%
17,"Cc1ccc(Nc2ccc(C(=O)N3CCC[C@@H](C)C3)cn2)cn1 [Compound 4.13b, (R-3-Methyl-piperidin-1-yl)-[6-(6-methyl-pyridin-3-ylamino)-pyridin-3-yl]-methanone]",96%
18,"Cc1ccc(Nc2ccc(C(=O)N3CCCCCC3)cn2)cn1 [Compound 4.15, Azepan-1-yl-[6-(6-methyl-pyridin-3-ylamino)-pyridin-3-yl]-methanone]",98%
19,"Cc1ccc(Nc2ccc(C(=O)N3CCCCCCC3)cn2)cn1 [Compound 4.16, Azocan-1-yl-[6-(6-methyl-pyridin-3-ylamino)-pyridin-3-yl]-methanone]",81%

row,SMILES,inhibition at 10 µM
1,"CCC1CCCCN1C(=O)c1cnc(Nc2ccc(C)nc2)c(Cl)c1 (stereo not shown) [Compound 4.17, [5-Chloro-6-(6-methyl-pyridin-3-ylamino)-pyridin-3-yl]-(2-ethyl-piperidin-1-yl)-methanone]",98%
2,"CC[C@@H]1CCCCN1C(=O)c1cnc(Nc2ccc(C)nc2)c(Cl)c1 [Compound 4.18, [5-Chloro-6-(6-methyl-pyridin-3-ylamino)-pyridin-3-yl]-((R)-2-ethyl-piperidin-1-yl)-methanone]",97%
3,"CC[C@H]1CCCCN1C(=O)c1cnc(Nc2ccc(C)nc2)c(Cl)c1 [Compound 4.19, [5-Chloro-6-(6-methyl-pyridin-3-ylamino)-pyridin-3-yl]-((S)-2-ethyl-piperidin-1-yl)-methanone]",97%
4,"Cc1ccc(Nc2ncc(C(=O)N3CCCC(C)C3C)cc2Cl)cn1 (stereo not shown) [Compound 4.20, [5-Chloro-6-(6-methyl-pyridin-3-ylamino)-pyridin-3-yl]-(2,3-dimethyl-piperidin-1-yl)-methanone]",100%
5,"Cc1ccc(Nc2ncc(C(=O)N3CCC[C@H](C)[C@@H]3C)cc2Cl)cn1 [Compound 4.21, [5-Chloro-6-(6-methyl-pyridin-3-ylamino)-pyridin-3-yl]-((2S,3S)-2,3-dimethyl-piperidin-1-yl)-methanone]",99%
6,"Cc1ccc(Nc2ncc(C(=O)N3CCC[C@@H](C)[C@H]3C)cc2Cl)cn1 [Compound 4.22, [5-Chloro-6-(6-methyl-pyridin-3-ylamino)-pyridin-3-yl]-((2R,3R)-2,3-dimethyl-piperidin-1-yl)-methanone]",98%
7,"Cc1ccc(Nc2ncc(C(=O)N3CCCC[C@@H]3C)cc2Cl)cn1 [Compound 4.23, [5-Chloro-6-(6-methyl-pyridin-3-ylamino)-pyridin-3-yl]-((S)-2-methyl-piperidin-1-yl)-methanone]",95%
8,"Cc1ccc(Nc2ncc(C(=O)N3CCCC[C@H]3C)cc2Cl)cn1 [Compound 4.24, [5-Chloro-6-(6-methyl-pyridin-3-ylamino)-pyridin-3-yl]-((R)-2-methyl-piperidin-1-yl)-methanone]",92%
9,"Cc1ccc(Nc2ncc(C(=O)N3CCCCC3C(C)C)cc2Cl)cn1 (stereo not shown) [Compound 4.28, [5-Chloro-6-(6-methyl-pyridin-3-ylamino)-pyridin-3-yl]-(2-isopropyl-piperidin-1-yl)-methanone]",93%
10,"Cc1ccc(Nc2ncc(C(=O)N3CCCC[C@@H]3C(C)C)cc2Cl)cn1 [Compound 4.29, [5-Chloro-6-(6-methyl-pyridin-3-ylamino)-pyridin-3-yl]-((R)-2-isopropyl-piperidin-1-yl)-methanone]",86%
11,"Cc1ccc(Nc2ncc(C(=O)N3CCCC[C@H]3C(C)C)cc2Cl)cn1 [Compound 4.30, [5-Chloro-6-(6-methyl-pyridin-3-ylamino)-pyridin-3-yl]-((S)-2-isopropyl-piperidin-1-yl)-methanone]",96%
12,"CCCC1CCCCN1C(=O)c1cnc(Nc2ccc(C)nc2)c(Cl)c1 (stereo not shown) [Compound 4.34, [5-Chloro-6-(6-methyl-pyridin-3-ylamino)-pyridin-3-yl]-(2-propyl-piperidin-1-yl)-methanone]",98%
13,"CCC[C@H]1CCCCN1C(=O)c1cnc(Nc2ccc(C)nc2)c(Cl)c1 [Compound 4.35, [5-Chloro-6-(6-methyl-pyridin-3-ylamino)-pyridin-3-yl]-((S)-2-propyl-piperidin-1-yl)-methanone]",85%
14,"CCC1CCCN(C(=O)c2cnc(Nc3ccc(C)nc3)c(Cl)c2)C1CC (stereo not shown) [Compound 4.37, [5-Chloro-6-(6-methyl-pyridin-3-ylamino)-pyridin-3-yl]-(2,3-diethyl-piperidin-1-yl)-methanone]",94%
15,"CCCCC1CCCCN1C(=O)c1cnc(Nc2ccc(C)nc2)c(Cl)c1 (stereo not shown) [Compound 4.38, (2-Butyl-piperidin-1-yl)-[5-chloro-6(6-methyl-pyridin-3-ylamino)-pyridin-3-yl]-methanone]",98%
16,"CCC(CC)C1CCCCN1C(=O)c1cnc(Nc2ccc(C)nc2)c(Cl)c1 (stereo not shown) [Compound 4.39, [5-Chloro-6-(6-methyl-pyridin-3-ylamino)-pyridin-3-yl]-[2-(1-ethyl-propyl)-piperidin-1-yl]-methanone]",96%
17,"CCC1C(C)CCCN1C(=O)c1cnc(Nc2ccc(C)nc2)c(Cl)c1 (stereo not shown) [Compound 4.40, [5-Chloro-6-(6-methyl-pyridin-3-ylamino)-pyridin-3-yl]-(2-ethyl-3-methyl-piperidin-1-yl)-methanone]",98%
18,"Cc1ccc(Nc2ncc(C(=O)N3CCCCC3c3ccccc3)cc2Cl)cn1 (stereo not shown) [Compound 4.41, [5-Chloro-6-(6-methyl-pyridin-3-ylamino)-pyridin-3-yl]-(2-phenyl-piperidin-1-yl)-methanone]",96%
